For 19 molecules, IC50 results are on record in patent US12448394B2, “Heterocyclic pyrazole derivatives as type III receptor tyrosine kinase inhibitors” (DEVELOPMENT CENTER FOR BIOTECHNOLOGY, priority 2019, dated 2025).

Like-named read-outs stand apart in the source and are kept apart here.

In one test the target is T1, PDGFRα kinase (Homo sapiens, UniProt P16234).
T1 construct: purchased SignalChem
The test can be described thus: PDGFRα kinase assay (AlphaScreen). The settings on record: read-out: Ranking of IC50 values, PDGFRα. It is filed as biochemical. In outline:
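IC50 values came from duplicate serial dilutions, with product read by AlphaScreen. The reaction ran 30 min at 30 °C, then EDTA stop: 1.5 ng recombinant enzyme, biotin-poly(Glu4:Tyr1) substrate, 10 μM ATP, 10 mM MOPS pH 7.0, 10 mM MgCl2.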
In general terms: Alpha assays give light when donor and acceptor beads are brought close together.

The test system of test [1] is A375 melanoma cell with BRAF V600E mutation. In words: A375 cell proliferation assay (counter screen). In kind it is cell-based, human. The settings on record: 72 hours treatment, CellTiter96, read-out: anti-proliferation activity A375 BRAF V600E, IC50 ranking. In outline:
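A375 cells (BRAF V600E) seeded at 2000 cells/well in DMEM with 10% FBS, settled overnight at 37° C, 5% CO2, then exposed to increasing compound concentrations for 72 hours. Viability read by MTS-type CellTiter96 AQueous reagent, absorbance at 490 nm after 2–4 hours.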
For orientation: The purpose of a counterscreen is to sort out artefacts and off-target activity.

For test [2], the system named is THP-1 human acute monocytic leukemia cell with NRAS G12D mutation. The test can be described thus: THP-1 cell proliferation assay (counter screen). It is filed as cell-based. The settings on record: THP-1 cells, 72 hours treatment, CellTiter96, read-out: anti-proliferation activity THP-1 NRAS N12D, IC50 ranking. In outline: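 Viability measured as 490 nm absorbance after 2–4 h with CellTiter96 AQueous One reagent, following 72 h treatment with rising compound concentrations. THP-1 cells, 5000/well, grown in RPMI 1640 with 10% FBS and 0.05 mM 2-mercaptoethanol at 37° C, 5% CO2, plated overnight before dosing.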

Another test concerns the target T2, MET kinase (Homo sapiens, UniProt P08581).
T2 construct: purchased SignalChem
The test can be described thus: MET kinase assay (AlphaScreen, counter screen). It is filed as biochemical. The conditions noted are these: read-out: Ranking of IC50 values, MET. In outline: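 IC50 came from duplicate serial dilutions, with AlphaScreen detection of phosphorylated biotin-poly(Glu4:Tyr1). The reaction used 1 ng recombinant MET, 10 µM ATP […], and MOPS pH 7.0/MgCl2 buffer, ran 45 min at 30 °C, and was quenched with EDTA.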

[3] abbreviates: Homo sapiens, A-375, A375 cells.

T1 sequence (P16234 24-1089): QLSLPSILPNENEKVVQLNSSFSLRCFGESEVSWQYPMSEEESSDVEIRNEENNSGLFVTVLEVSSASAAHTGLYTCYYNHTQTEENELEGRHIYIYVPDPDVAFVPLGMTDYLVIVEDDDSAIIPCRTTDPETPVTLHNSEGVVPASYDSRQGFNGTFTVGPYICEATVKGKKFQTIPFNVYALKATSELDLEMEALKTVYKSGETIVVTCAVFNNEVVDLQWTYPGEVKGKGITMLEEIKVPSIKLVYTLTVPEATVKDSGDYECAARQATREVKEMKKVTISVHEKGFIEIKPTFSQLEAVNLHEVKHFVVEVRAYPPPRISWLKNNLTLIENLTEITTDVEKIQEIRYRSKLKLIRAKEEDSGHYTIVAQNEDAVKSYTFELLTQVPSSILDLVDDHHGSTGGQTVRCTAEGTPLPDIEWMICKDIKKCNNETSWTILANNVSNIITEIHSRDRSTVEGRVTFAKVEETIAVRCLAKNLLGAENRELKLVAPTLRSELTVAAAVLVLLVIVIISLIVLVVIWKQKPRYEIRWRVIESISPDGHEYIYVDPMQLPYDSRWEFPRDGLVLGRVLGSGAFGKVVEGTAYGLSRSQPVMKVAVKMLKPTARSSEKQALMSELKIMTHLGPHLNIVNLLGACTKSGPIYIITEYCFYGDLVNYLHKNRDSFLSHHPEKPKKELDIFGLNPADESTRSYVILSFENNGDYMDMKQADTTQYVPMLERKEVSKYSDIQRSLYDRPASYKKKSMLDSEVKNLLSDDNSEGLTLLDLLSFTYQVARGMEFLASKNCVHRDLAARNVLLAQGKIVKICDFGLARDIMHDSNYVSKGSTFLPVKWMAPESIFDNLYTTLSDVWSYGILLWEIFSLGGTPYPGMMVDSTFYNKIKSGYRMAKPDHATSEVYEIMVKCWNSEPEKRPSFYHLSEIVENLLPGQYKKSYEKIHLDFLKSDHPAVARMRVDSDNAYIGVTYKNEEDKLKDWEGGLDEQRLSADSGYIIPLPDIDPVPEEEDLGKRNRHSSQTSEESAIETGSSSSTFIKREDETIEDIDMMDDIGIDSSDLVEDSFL
T2 sequence (P08581 25-1390): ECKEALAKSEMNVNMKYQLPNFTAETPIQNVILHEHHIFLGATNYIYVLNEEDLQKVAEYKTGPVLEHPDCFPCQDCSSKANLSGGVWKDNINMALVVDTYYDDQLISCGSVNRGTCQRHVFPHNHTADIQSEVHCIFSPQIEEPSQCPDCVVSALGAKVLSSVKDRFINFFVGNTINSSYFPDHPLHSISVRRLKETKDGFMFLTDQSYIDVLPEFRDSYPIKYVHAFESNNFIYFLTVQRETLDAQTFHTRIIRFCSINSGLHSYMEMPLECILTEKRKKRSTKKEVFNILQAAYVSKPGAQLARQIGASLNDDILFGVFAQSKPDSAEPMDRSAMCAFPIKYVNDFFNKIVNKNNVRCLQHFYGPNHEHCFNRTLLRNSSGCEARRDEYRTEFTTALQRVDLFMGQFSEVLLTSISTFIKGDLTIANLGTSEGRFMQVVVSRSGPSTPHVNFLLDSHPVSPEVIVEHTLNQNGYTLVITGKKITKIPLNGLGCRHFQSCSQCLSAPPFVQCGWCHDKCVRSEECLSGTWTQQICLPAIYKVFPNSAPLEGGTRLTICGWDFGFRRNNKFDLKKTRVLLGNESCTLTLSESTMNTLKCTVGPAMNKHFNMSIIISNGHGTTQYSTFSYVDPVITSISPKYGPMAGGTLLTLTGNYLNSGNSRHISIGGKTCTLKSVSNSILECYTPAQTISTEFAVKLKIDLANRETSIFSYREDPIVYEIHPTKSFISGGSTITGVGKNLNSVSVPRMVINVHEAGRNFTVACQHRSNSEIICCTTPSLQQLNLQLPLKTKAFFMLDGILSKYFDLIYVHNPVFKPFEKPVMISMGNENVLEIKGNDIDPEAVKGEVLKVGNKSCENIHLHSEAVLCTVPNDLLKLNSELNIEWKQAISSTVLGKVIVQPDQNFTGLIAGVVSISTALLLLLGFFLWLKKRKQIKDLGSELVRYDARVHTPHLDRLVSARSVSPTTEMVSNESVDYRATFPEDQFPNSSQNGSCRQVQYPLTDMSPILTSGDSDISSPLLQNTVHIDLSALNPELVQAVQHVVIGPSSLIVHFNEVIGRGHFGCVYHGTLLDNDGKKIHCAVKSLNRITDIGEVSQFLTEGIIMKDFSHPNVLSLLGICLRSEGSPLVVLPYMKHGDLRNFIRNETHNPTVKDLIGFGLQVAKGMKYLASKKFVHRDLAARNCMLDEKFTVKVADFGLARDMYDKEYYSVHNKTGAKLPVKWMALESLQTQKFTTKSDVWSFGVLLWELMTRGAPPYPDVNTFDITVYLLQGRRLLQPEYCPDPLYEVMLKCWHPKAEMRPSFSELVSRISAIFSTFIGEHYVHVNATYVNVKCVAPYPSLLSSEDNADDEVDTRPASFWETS

For the molecule `Cn1ncc2ccc(-c3n[nH]c4c3Cc3sc(C5CCNCC5)cc3-4)cc21` [Compound 96, 3-(1-methyl-1H-indazol-6-yl)-6-(piperidin-4-yl)-1,4-dihydrothieno [2′,3′:4,5]cyclopenta [1,2-c]pyrazole], the IC50 on PDGFRα kinase is 1 to 10 nM; in test [1] (setting [3]) it was 1 to 10 µM; in test [2] (Homo sapiens), 0.3 to 1 µM; at MET kinase, above 1000 nM.
The corresponding values for `c1cc(CN2CCOCC2)ncc1-c1cc2c(s1)Cc1c(-c3ccc4cn[nH]c4c3)n[nH]c1-2` [Compound 18, 4-((5-(3-(1H-indazol-6-yl)-1,4-dihydrothieno[2′,3′:4,5]cyclopenta[1,2-c]pyrazol-6-yl)pyridin-2-yl)methyl) morpholine] are 1 to 10 nM, above 10 µM, above 10 µM and above 1000 nM.
The corresponding values for `Cn1ncc2ccc(-c3n[nH]c4c3Cc3sc(C5CCN(C(=O)OC(C)(C)C)CC5)cc3-4)cc21` [Compound 58, tert-butyl-4-(3-(1-methyl-1H-indazol-6-yl)-1,4-dihydrothieno[2′,3′:4,5]cyclopenta[1,2-c]pyrazol-6-yl)piperidine-1-carboxylate] are 30 to 100 nM, above 10 µM, above 10 µM and above 1000 nM.
The corresponding values for `Cn1ncc2ccc(-c3n[nH]c4c3Cc3sc(-c5ccc(C(=O)N6CCOCC6)c(F)c5)cc3-4)cc21` [Compound 44, (2-fluoro-4-(3-(1-methyl-1H-indazol-6-yl)-1,4-dihydrothieno[2′,3′:4,5]cyclopenta[1,2-c]pyrazol-6-yl)phenyl)(morpholino) methanone] are 1 to 10 nM, above 10 µM, above 10 µM and above 1000 nM.
`Cn1ncc2ccc(-c3n[nH]c4c3Cc3sc(-c5ccc(S(=O)(=O)N6CCOCC6)cc5)cc3-4)cc21` [Compound 47, 4-((4-(3-(1-methyl-1H-indazol-6-yl)-1,4-dihydro-thieno[2′,3′:4,5]cyclopenta [1,2-c]pyrazol-6-yl)phenyl)sulfonyl) morpholine]: the IC50 is 1 to 10 nM on PDGFRα kinase, above 10 µM in test [1] (setting [3]), above 10 µM in test [2] (Homo sapiens) and above 1000 nM at MET kinase.
With `Cn1ncc2ccc(-c3n[nH]c4c3Cc3sc(-c5cccc(C(=O)N6CCOCC6)c5)cc3-4)cc21` [Compound 37, (3-(3-(1-methyl-1H-indazol-6-yl)-1,4-dihydro-thieno[2′,3′:4,5]cyclopenta [1,2-c]pyrazol-6-yl)phenyl)(morpholino) methanone], the IC50 at PDGFRα kinase is 1 to 10 nM; in test [1] (setting [3]), above 10 µM; in test [2] (Homo sapiens), above 10 µM; on MET kinase, above 1000 nM.
On to `CCC(c1ccc(-c2cc3c(s2)Cc2c(-c4ccc5cnn(C)c5c4)n[nH]c2-3)cc1)N1CCOCC1` (stereo not shown) [Compound 28, 4-(1-(4-(3-(1-methyl-1H-indazol-6-yl)-1,4-dihydro-thieno[2′,3′:4,5]cyclopenta [1,2-c]pyrazol-6-yl)phenyl)propyl)morpholine], for which the IC50 is 10 to 30 nM on PDGFRα kinase, above 10 µM in test [1] (setting [3]), above 10 µM in test [2] (Homo sapiens) and above 1000 nM at MET kinase.
Turning to `Cn1ncc2ccc(-c3n[nH]c4c3Cc3sc(-c5ccc(C=C6CCOCC6)cc5)cc3-4)cc21` [Compound 76, 3-(1-methyl-1H-indazol-6-yl)-6-(4-((tetrahydro-4H-pyran-4-ylidene)methyl)phenyl)-1,4-dihydrothieno[2′,3′:4,5] cyclopenta[1,2-c]pyrazole], the IC50 on PDGFRα kinase is 100 to 300 nM; in test [1] (setting [3]) it was above 10 µM; in test [2] (Homo sapiens), above 10 µM; at MET kinase it was above 1000 nM.
As to `C[C@@H]1CN(Cc2ccc(-c3cc4c(s3)Cc3c(-c5ccc6cnn(C)c6c5)n[nH]c3-4)cc2)C[C@H](C)O1` [Compound 54, (2S,6R)-2,6-dimethyl-4-(4-(3-(1-methyl-1H-indazol-6-yl)-1,4-dihydro-thieno[2′,3′:4,5]cyclopenta [1,2-c]pyrazol-6-yl)benzyl)morpholine], the IC50 is 1 to 10 nM at PDGFRα kinase, above 10 µM in test [1] (setting [3]), above 10 µM in test [2] (Homo sapiens) and above 1000 nM on MET kinase.
Turning to `Cc1ccc(-c2cc3c(s2)Cc2c(-c4ccc5cnn(C)c5c4)n[nH]c2-3)cn1` [Compound 33, 3-(1-methyl-1H-indazol-6-yl)-6-(6-methylpyridin-3-yl)-1,4-dihydrothieno [2′,3′:4,5]cyclopenta [1,2-c]pyrazole], the IC50 at PDGFRα kinase is 1 to 10 nM; in test [1] (A375 cells), above 10 µM; in test [2], above 10 µM; at MET kinase, above 1000 nM.
As to `Cn1cc(-c2cc3c(s2)Cc2c(-c4ccc5cnn(C)c5c4)n[nH]c2-3)cc1C(=O)N1CCOCC1` [Compound 46, (1-methyl-4-(3-(1-methyl-1H-indazol-6-yl)-1,4-dihydrothieno[2′,3′:4,5]cyclopenta[1,2-c]pyrazol-6-yl)-1H-pyrrol-2-yl) (morpholino)methanone], the IC50 was 1 to 10 nM at PDGFRα kinase, above 10 µM in test [1] (setting [3]), above 10 µM in test [2] (Homo sapiens) and above 1000 nM on MET kinase.
`Cn1ncc2ccc(-c3n[nH]c4c3Cc3sc(-c5ccc(CN6CCOCC6)c(F)c5)cc3-4)cc21` [Compound 25, 4-(2-fluoro-4-(3-(1-methyl-1H-indazol-6-yl)-1,4-dihydrothieno[2′,3′:4,5]cyclopenta[1,2-c]pyrazol-6-yl)benzyl)morpholine]: the IC50 at PDGFRα kinase was 1 to 10 nM; in test [1] (setting [3]), above 10 µM; in test [2] (Homo sapiens) it was above 10 µM; on MET kinase, above 1000 nM.
In the case of `CN(C)C(=O)c1ccc(-c2cc3c(s2)Cc2c(-c4ccc5cnn(C)c5c4)n[nH]c2-3)cc1` [Compound 49, N,N-dimethyl-4-(3-(1-methyl-1H-indazol-6-yl)-1,4-dihydrothieno [2′,3′:4,5]cyclopenta [1,2-c]pyrazol-6-yl) benzamide], the IC50 at PDGFRα kinase is 1 to 10 nM; in test [1] (setting [3]) it was above 10 µM; in test [2] (Homo sapiens), above 10 µM; at MET kinase it was above 1000 nM.
Consider `Cn1ncc2ccc(-c3n[nH]c4c3Cc3sc(-c5csc(C(=O)N6CCOCC6)c5)cc3-4)cc21` [Compound 48, (4-(3-(1-methyl-1H-indazol-6-yl)-1,4-dihydro-thieno[2′,3′:4,5]cyclopenta [1,2-c]pyrazol-6-yl)thiophen-2-yl) (morpholino)methanone], for which the IC50 is 1 to 10 nM on PDGFRα kinase, above 10 µM in test [1] (setting [3]), above 10 µM in test [2] (Homo sapiens) and above 1000 nM at MET kinase.
Turning to `Cn1ncc2ccc(-c3n[nH]c4c3Cc3sc(-c5ccc(C(=O)N6CCOCC6)nc5)cc3-4)cc21` [Compound 23, (5-(3-(1-methyl-1H-indazol-6-yl)-1,4-dihydro-thieno[2′,3′:4,5]cyclopenta [1,2-c]pyrazol-6-yl)pyridin-2-yl)(morpholino) methanone], the IC50 on PDGFRα kinase was 1 to 10 nM; in test [1] (setting [3]), above 10 µM; in test [2] (Homo sapiens) it was above 10 µM; on MET kinase it was above 1000 nM.
Turning to `Cn1ncc2ccc(-c3n[nH]c4c3Cc3sc(-c5csc(C(=O)N6CCOCC6)n5)cc3-4)cc21` [Compound 60, (4-(3-(1-methyl-1H-indazol-6-yl)-1,4-dihydro-thieno[2′,3′:4,5]cyclopenta [1,2-c]pyrazol-6-yl)thiazol-2-yl)(morpholino) methanone], the IC50 is 1 to 10 nM at PDGFRα kinase, 1 to 10 µM in test [1] (setting [3]), 1 to 10 µM in test [2] (Homo sapiens) and above 1000 nM at MET kinase.
Regarding `C[C@@H]1CN(Cc2ccc(-c3cc4c(s3)Cc3c(-c5ccc6cn[nH]c6c5)n[nH]c3-4)cc2)C[C@H](C)O1` [Compound 7, (2S,6R)-4-(4-(3-(1H-indazol-6-yl)-1,4-dihydrothieno[2′,3′:4,5]cyclopenta [1,2-c]pyrazol-6-yl)benzyl)-2,6-dimethylmorpholine], the IC50 was 1 to 10 nM at PDGFRα kinase, above 10 µM in test [1] (setting [3]), above 10 µM in test [2] (Homo sapiens) and above 1000 nM on MET kinase.
For the molecule `CN(c1ccc(-c2cc3c(s2)Cc2c(-c4ccc5cnn(C)c5c4)n[nH]c2-3)cc1)C1CCOCC1` [Compound 73, N-methyl-N-(4-(3-(1-methyl-1H-indazol-6-yl)-1,4-dihydrothieno [2′,3′:4,5]cyclopenta [1,2-c]pyrazol-6-yl)phenyl)tetrahydro-2H-pyran-4-amine], the IC50 is 30 to 100 nM on PDGFRα kinase, above 10 µM in test [1] (setting [3]), above 10 µM in test [2] (Homo sapiens) and above 1000 nM at MET kinase.
Regarding `Cn1ncc2ccc(-c3n[nH]c4c3Cc3sc(-c5ccc(CN6CC(F)(F)C6)cc5)cc3-4)cc21` [Compound 104, 6-(4-((3,3-difluoroazeti-din-1-yl)methyl)phenyl)-3-(1-methyl-1H-indazol-6-yl)-1,4-dihydrothieno [2′,3′:4,5]cyclopenta [1,2-c]pyrazole], the IC50 on PDGFRα kinase is 30 to 100 nM; in test [1] (setting [3]) it was 1 to 10 µM; in test [2] (Homo sapiens), 1 to 10 µM; on MET kinase it was above 1000 nM.
